The structures appear in SMILES notation. Read-outs that look alike come from different tables or passages of the source.

This is an account of results in patent US10472341B2, “Bicyclic tetrahydrothiazepine derivatives useful for the treatment of neoplastic and/or infectious diseases” (APEIRON BIOLOGICS AG, priority 2015, dated 2019).

The subject of assay [1] is aCD3/aCD28-stimulated human CD4+-T-cells. Put plainly: IL-2 production and activation markers in aCD3/aCD28 stimulated isolated human CD4+-T-cells. The assay is classed as cell-based. Conditions: IL-2 production at 3 μM compound. A digest of the protocol:
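CD4+ T cells isolated from buffy-coat PBMCs by microbeads were plated in Xvivo medium (1.5*10^5 cells/well) and stimulated with anti-CD3/28 mAbs plus compound. IL-2 measured by ELISA in supernatants at 24 h or 48 h; CD25 and proliferation by flow cytometry, CD69 at 24 h. Activity classes based on IL-2 at 3 μM compound.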

Assay [2] relates to aCD3/aCD28-stimulated human PBMCs. The assay is described as follows: Cytokine production in aCD3/aCD28 stimulated human PBMCs. The format is cell-based. The note with it: PBMC, 18 h. In short, it runs like this: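 Ficoll-isolated human PBMCs at 1e6 cells/mL in X-Vivo15, stimulated with soluble anti-CD3/CD28 (OKT3 and 28.2, 1 μg/mL each) plus compound for 18 h at 37° C. Supernatant cytokines quantified by MSD or HTRF.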

Where [3] appears, read: enhancement of IFN-γ production, read-out: Activity Class IFN-γ.
[4] abbreviates: enhancement of IL-2 production, read-out: Activity Class IL-2.

For `CC(NC(=O)c1ccc2c(c1)N(Cc1ccc(Cl)cc1)C(=O)[C@@H](N)CS2)c1ccc(F)cc1.Cl` (stereo partly drawn) [Example 34, (3R)-3-amino-5-[(4-chlorophenyl)methyl]-N-[1-(4-fluorophenyl)ethyl]-4-oxo-2,3,4,5-tetrahydro-1,5-benzothiazepine-7-carboxamide hydrochloride], the “Activity Class CD4+” value in assay [1] was “C (IL-2 production at 3 μM compound concentration between 2-fold increase as compared to mean IL-2 production of stimulated cells in the absence of compounds and <2 ng/mL)”. For the same molecule, the EC50 in assay [2] (setting [3]) and in assay [2] (setting [4]) was 1.58 to 5.01 µM throughout.

In the case of `Cl.N[C@H]1CSc2cc(F)c(C(=O)NCC3CCOCC3)cc2N(Cc2ccc(Cl)cc2)C1=O` [Example 42, (3R)-3-amino-5-[(4-chlorophenyl)methyl]-8-fluoro-N-(oxan-4-ylmethyl)-4-oxo-2,3,4,5-tetrahydro-1,5-benzothiazepine-7-carboxamide hydrochloride], the “Activity Class CD4+” value in assay [1] is “C (IL-2 production at 3 μM compound concentration between 2-fold increase as compared to mean IL-2 production of stimulated cells in the absence of compounds and <2 ng/mL)”. Also, the EC50 is 1.58 to 5.01 µM in assay [2] (setting [3]) and more than 5.01 µM in assay [2] (setting [4]).

Consider `CCCCCCCCCCCCCCCCNC(=O)c1cc2c(cc1F)S(=O)(=O)C[C@H](N)C(=O)N2Cc1ccc(Cl)cc1.Cl` [Example 109, (3R)-3-amino-5-[(4-chlorophenyl)methyl]-8-fluoro-N-hexadecyl-1,1,4-trioxo-2,3,4,5-tetrahydro-1λ^6,5-benzothiazepine-7-carboxamide hydrochloride], for which, in assay [1], the “Activity Class CD4+” value is on record as “A (IL-2 production at 3 μM compound concentration >10 ng/mL)”. In addition, the EC50 in assay [2] (setting [3]) and in assay [2] (setting [4]) was less than 1.58 µM each time.

For the molecule `CC(C)NC(=O)c1ccc2c(c1)N(Cc1ccc(C(C)(C)C)cc1)C(=O)[C@@H](N)CS2.Cl` [Example 4, (3R)-3-amino-5-[(4-tert-butylphenyl)methyl]-4-oxo-N-(propan-2-yl)-2,3,4,5-tetrahydro-1,5-benzothiazepine-7-carboxamide hydrochloride], the “Activity Class CD4+” value in assay [1] is “C (IL-2 production at 3 μM compound concentration between 2-fold increase as compared to mean IL-2 production of stimulated cells in the absence of compounds and <2 ng/mL)”. Besides, the EC50 in assay [2] (setting [3]) was more than 5.01 µM; in assay [2] (setting [4]), 1.58 to 5.01 µM.

Turning to `Cl.N[C@H]1CSc2ccc(C(=O)NCc3ccc(F)cc3)cc2N(Cc2ccc(Cl)cc2)C1=O` [Example 26, (3R)-3-amino-5-[(4-chlorophenyl)methyl]-N-[(4-fluorophenyl)methyl]-4-oxo-2,3,4,5-tetrahydro-1,5-benzothiazepine-7-carboxamide hydrochloride], the “Activity Class CD4+” value in assay [1] was “B (IL-2 production at 3 μM compound concentration between 2-10 ng/mL)”. Besides, the EC50 in assay [2] (setting [3]) is less than 1.58 µM; in assay [2] (setting [4]), 1.58 to 5.01 µM.

Consider `CCCONC(=O)c1cc2c(cc1F)SC[C@H](N)C(=O)N2Cc1ccc(Cl)cc1.Cl` [Example 58, (3R)-3-amino-5-[(4-chlorophenyl)methyl]-8-fluoro-4-oxo-N-propoxy-2,3,4,5-tetrahydro-1,5-benzothiazepine-7-carboxamide hydrochloride], for which the “Activity Class CD4+” value in assay [1] is “C (IL-2 production at 3 μM compound concentration between 2-fold increase as compared to mean IL-2 production of stimulated cells in the absence of compounds and <2 ng/mL)”. Further, the EC50 in assay [2] (setting [3]) and in assay [2] (setting [4]) was more than 5.01 µM throughout.

Consider `CC(C)C(C)NC(=O)c1ccc2c(c1)N(Cc1ccc(Cl)cc1)C(=O)[C@@H](N)CS2(=O)=O.Cl` (stereo partly drawn) [Example 83, (3R)-3-amino-5-[(4-chlorophenyl)methyl]-N-(3-methylbutan-2-yl)-1,1,4-trioxo-2,3,4,5-tetrahydro-1λ^6,5-benzothiazepine-7-carboxamide hydrochloride], for which the “Activity Class CD4+” value in assay [1] is reported as “B (IL-2 production at 3 μM compound concentration between 2-10 ng/mL)”. For the same molecule, the EC50 is less than 1.58 µM in assay [2] (setting [3]) and more than 5.01 µM in assay [2] (setting [4]).

With `CCCCNC(=O)c1ccc2c(c1)N(Cc1ccc(Cl)cc1)C(=O)[C@@H](N)CS2.Cl` [Example 10, (3R)-3-amino-N-butyl-5-[(4-chlorophenyl)methyl]-4-oxo-2,3,4,5-tetrahydro-1,5-benzothiazepine-7-carboxamide hydrochloride], the “Activity Class CD4+” value in assay [1] was “C (IL-2 production at 3 μM compound concentration between 2-fold increase as compared to mean IL-2 production of stimulated cells in the absence of compounds and <2 ng/mL)”. In addition, the EC50 is 1.58 to 5.01 µM in assay [2] (setting [3]) and more than 5.01 µM in assay [2] (setting [4]).

Take `Cl.N[C@H]1CS(=O)(=O)c2ccc(C(=O)NCCCC(F)(F)F)cc2N(Cc2ccc(Cl)cc2)C1=O` [Example 80, (3R)-3-amino-5-[(4-chlorophenyl)methyl]-1,1,4-trioxo-N-(4,4,4-trifluorobutyl)-2,3,4,5-tetrahydro-1λ^6,5-benzothiazepine-7-carboxamide hydrochloride]: the “Activity Class CD4+” value in assay [1] is “A (IL-2 production at 3 μM compound concentration >10 ng/mL)”. For the same molecule, the EC50 in assay [2] (setting [3]) and in assay [2] (setting [4]) was less than 1.58 µM in each case.

In the case of `Cl.N[C@H]1CSc2ccc(C(=O)NCCCC(F)(F)F)cc2N(Cc2ccc(C(F)(F)F)nc2)C1=O` [Example 36, (3R)-3-amino-4-oxo-N-(4,4,4-trifluorobutyl)-5-{[6-(trifluoromethyl)pyridin-3-yl]methyl}-2,3,4,5-tetrahydro-1,5-benzothiazepine-7-carboxamide hydrochloride], in assay [1], the “Activity Class CD4+” value is “C (IL-2 production at 3 μM compound concentration between 2-fold increase as compared to mean IL-2 production of stimulated cells in the absence of compounds and <2 ng/mL)”. The EC50 in assay [2] (setting [3]) was less than 1.58 µM; in assay [2] (setting [4]) it was more than 5.01 µM.

`Cl.N[C@H]1CSc2ccc(C(=O)NCC3CCCOC3)cc2N(Cc2ccc(Cl)cc2)C1=O` (stereo partly drawn) [Example 28, (3R)-3-amino-5-[(4-chlorophenyl)methyl]-N-(oxan-3-ylmethyl)-4-oxo-2,3,4,5-tetrahydro-1,5-benzothiazepine-7-carboxamide hydrochloride]: the “Activity Class CD4+” value in assay [1] is “C (IL-2 production at 3 μM compound concentration between 2-fold increase as compared to mean IL-2 production of stimulated cells in the absence of compounds and <2 ng/mL)”. For the same molecule, the EC50 in assay [2] (setting [3]) is 1.58 to 5.01 µM; in assay [2] (setting [4]), more than 5.01 µM.

As to `Cl.N[C@H]1CS(=O)(=O)c2cc(F)c(C(=O)NCc3ccccc3)cc2N(Cc2ccc(Cl)cc2)C1=O` [Example 103, (3R)-3-amino-N-benzyl-5-[(4-chlorophenyl)methyl]-8-fluoro-1,1,4-trioxo-2,3,4,5-tetrahydro-1λ^6,5-benzothiazepine-7-carboxamide hydrochloride], the “Activity Class CD4+” value in assay [1] is “A (IL-2 production at 3 μM compound concentration >10 ng/mL)”. The EC50 in assay [2] (setting [3]) and in assay [2] (setting [4]) was less than 1.58 µM each time.

As for `CC(C)NC(=O)c1ccc2c(c1)N(Cc1ccc(Cl)c(F)c1)C(=O)[C@@H](N)CS2(=O)=O.Cl` [Example 89, (3R)-3-amino-5-[(4-chloro-3-fluorophenyl)methyl]-1,1,4-trioxo-N-(propan-2-yl)-2,3,4,5-tetrahydro-1λ^6,5-benzothiazepine-7-carboxamide hydrochloride], the “Activity Class CD4+” value in assay [1] was “C (IL-2 production at 3 μM compound concentration between 2-fold increase as compared to mean IL-2 production of stimulated cells in the absence of compounds and <2 ng/mL)”. For the same molecule, the EC50 is 1.58 to 5.01 µM in assay [2] (setting [3]) and more than 5.01 µM in assay [2] (setting [4]).
